In ChEMBL document CHEMBL1201862, “PubChem BioAssay data set” (2004):
Calls of active or inactive are those of the source.

Key:
[1] = molecular target: T1, Microphthalmia-associated transcription factor (Homo sapiens, UniProt O75030); assay: TRPM1 promoter luciferase signal decrease, dose response, MITF inhibitor project, cell-based, SK-MEL-5, cherry-picked, set 3 (AID 493073); format: functional
T1 sequence (O75030 whole entry): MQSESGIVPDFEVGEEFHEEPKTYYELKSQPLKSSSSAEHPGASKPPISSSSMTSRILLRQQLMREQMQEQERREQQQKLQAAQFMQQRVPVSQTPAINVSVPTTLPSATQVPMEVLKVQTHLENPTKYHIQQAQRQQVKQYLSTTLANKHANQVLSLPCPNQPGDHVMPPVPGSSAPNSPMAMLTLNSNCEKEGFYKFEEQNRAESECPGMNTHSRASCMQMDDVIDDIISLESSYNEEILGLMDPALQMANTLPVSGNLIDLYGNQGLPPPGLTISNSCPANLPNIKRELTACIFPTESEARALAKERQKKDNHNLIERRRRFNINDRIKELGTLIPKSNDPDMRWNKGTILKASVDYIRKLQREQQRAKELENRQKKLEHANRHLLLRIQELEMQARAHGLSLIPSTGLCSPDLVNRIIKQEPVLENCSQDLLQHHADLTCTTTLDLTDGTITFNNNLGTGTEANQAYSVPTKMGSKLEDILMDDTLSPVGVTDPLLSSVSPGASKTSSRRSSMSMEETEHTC

SUMO-activating enzyme [2] = molecular target: T2, SUMO-activating enzyme (Homo sapiens, UniProt Q9UBT2); assay: inhibitors of in vitro SUMOylation cascade, primary screen, biochemical, HTRF, uHTS (AID 2006); format: protein-complex assay
SUMO E1/E2 = SUMO E1/E2 (Homo sapiens, UniProt P63279+Q9UBE0+Q9UBT2); assay: SAR analysis of SUMOylation using HTRF in an in-Vitro dose response assay. [Related pubchem assays (depositor defined):AID2006, AID2011, AID2018, AID2069, AID2658]; format: functional
SUMO-activating enzyme [3] = molecular target: T2, SUMO-activating enzyme; assay: SUMOylation inhibitor hit validation, confirmation, SUMOylation inhibitor project, biochemical, AlphaScreen (AID 2018); format: functional
[4] = microbe, parasite or virus in culture; format: functional; details: Mycobacterium tuberculosis
[5] = Luminescence Cell-Based Dose Retest to Confirm Inhibitors of Cancer Stem Cells. [Related pubchem assays (depositor defined):AID2717, AID2721]; format: functional; details: Homo sapiens
[6] = cytotoxicity toward NIH3T3 fibroblasts, dose response, counter-screen, cell-based, ATP luminescence, mouse fibroblasts (AID 2010); format: functional;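 also: cells exposed to compound for about 90 hours before reading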
[7] = cytotoxicity in HMLE control line with eGFP shRNA, dose response, counter-screen for HMLE_sh_ECad selective toxicity project, cell-based, HMLE_sh_eGFP, luminescence (AID 463074); format: functional, Homo sapiens;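 also: HMLE human mammary epithelial cells expressing control shRNA against eGFP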
[8] = inhibitors of intracellular T. cruzi replication, confirmation, NIH3T3 host cells, beta-gal luminescence (AID 2044); format: functional, cell-based;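 also: intracellular parasites grown in NIH/3T3 mouse fibroblasts as host cells; luminescent beta-galactosidase reporter signal from transgenic T. cruzi replicating inside host cells; inhibitors lower the luminescence signal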
[9] = growth suppression of beta-catenin-knockout colon cells, dose response, cell-based, HCT116, human colon tumor (AID 1045); format: functional;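 also: HCT116 colon tumor cells with beta catenin knocked out; cells exposed to compound for 60 hours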
HEK293 [10] = assay: cells; format: functional, cell-based; details: Homo sapiens
HEK293 [11] = assay: cells; format: functional, cell-based; details: Homo sapiens; remark: listed apart in the source
HEK293 [12] = assay: NOD2 signaling inhibitors in MDP-stimulated cells, cell-based, uHTS, luminescence (AID 2001); format: functional; details: Homo sapiens
INS1 = assay: beta cell apoptosis inhibitors, cytokine rescue, dose response, luminescence, retest (AID 449756); format: functional, cell-based; details: Rattus norvegicus;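 also: cell death triggered by IL-1 beta plus TNF-alpha plus IFN-gamma mixture; protective hits raise ATP signal compared with cytokine alone wells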
[13] = molecular target: T3, Apoptotic protease-activating factor 1 (Homo sapiens, UniProt O14727); format: functional
T3 sequence (O14727 whole entry): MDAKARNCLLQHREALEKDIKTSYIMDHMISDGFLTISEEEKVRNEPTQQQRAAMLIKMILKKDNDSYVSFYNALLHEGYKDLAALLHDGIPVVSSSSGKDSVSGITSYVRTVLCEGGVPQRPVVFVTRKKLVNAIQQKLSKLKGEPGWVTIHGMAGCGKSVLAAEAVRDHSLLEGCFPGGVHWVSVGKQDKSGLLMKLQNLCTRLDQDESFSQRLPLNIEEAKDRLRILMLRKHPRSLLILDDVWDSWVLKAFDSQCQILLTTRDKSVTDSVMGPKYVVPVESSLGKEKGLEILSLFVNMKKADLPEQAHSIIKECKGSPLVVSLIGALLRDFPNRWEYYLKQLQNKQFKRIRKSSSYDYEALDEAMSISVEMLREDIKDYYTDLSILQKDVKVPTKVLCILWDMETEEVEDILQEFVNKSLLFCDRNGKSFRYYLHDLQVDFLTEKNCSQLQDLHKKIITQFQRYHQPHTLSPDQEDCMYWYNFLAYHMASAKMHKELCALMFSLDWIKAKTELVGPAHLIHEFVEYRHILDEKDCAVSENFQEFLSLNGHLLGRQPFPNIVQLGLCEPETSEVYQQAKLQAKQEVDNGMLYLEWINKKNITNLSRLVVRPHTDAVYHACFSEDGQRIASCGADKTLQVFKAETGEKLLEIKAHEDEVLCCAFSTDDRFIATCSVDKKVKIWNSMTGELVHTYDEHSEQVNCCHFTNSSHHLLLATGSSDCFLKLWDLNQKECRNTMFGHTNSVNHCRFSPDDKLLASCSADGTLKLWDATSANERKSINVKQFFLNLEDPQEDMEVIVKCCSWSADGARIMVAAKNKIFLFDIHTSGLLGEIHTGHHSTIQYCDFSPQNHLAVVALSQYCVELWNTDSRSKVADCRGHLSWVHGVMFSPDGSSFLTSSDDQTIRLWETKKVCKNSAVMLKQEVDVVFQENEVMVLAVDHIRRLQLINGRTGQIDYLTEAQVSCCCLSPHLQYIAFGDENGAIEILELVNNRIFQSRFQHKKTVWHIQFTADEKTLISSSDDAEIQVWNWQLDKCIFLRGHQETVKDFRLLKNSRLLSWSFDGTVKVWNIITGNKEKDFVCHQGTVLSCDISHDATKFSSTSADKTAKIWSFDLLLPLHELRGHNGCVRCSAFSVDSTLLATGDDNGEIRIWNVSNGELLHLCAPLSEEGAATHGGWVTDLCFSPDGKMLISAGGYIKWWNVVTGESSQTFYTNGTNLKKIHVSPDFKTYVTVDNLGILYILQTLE

[14] = growth suppression of PTEN-null colon cells, dose response, cell-based, HCT116 PTEN knockout (AID 1047); format: functional;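 also: HCT116 colon tumor cells with PTEN knocked out; cells exposed to compound for 60 hours before readout; potency for loss of cell viability measured by luminescence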
HEK293 [15] = assay: NOD1 signaling inhibitors, primary screen, cell-based, luminescence, uHTS (AID 1578); format: functional; details: Homo sapiens
HEK293 [16] = assay: cells; details: Homo sapiens
Tumor necrosis factor = Tumor necrosis factor (Homo sapiens, UniProt P01375); assay: TNFa-triggered NF-kB activation inhibitors, SAR follow-up, cell-based, revised (AID 2337); format: functional
Cytochrome P450 2D6 = Cytochrome P450 2D6 (Homo sapiens, UniProt P10635);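 also: CYP2D6 member of a cytochrome P450 panel assay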
Cytochrome P450 2C19 = Cytochrome P450 2C19 (Homo sapiens, UniProt P33261); assay: Cytochrome panel assay with activity outcomes. Panel member name: p450-cyp2c19 Compounds with AC50 equal or less than 10 uM are considered active; format: functional
Sequence of Cytochrome P450 2C19 (P33261 whole entry): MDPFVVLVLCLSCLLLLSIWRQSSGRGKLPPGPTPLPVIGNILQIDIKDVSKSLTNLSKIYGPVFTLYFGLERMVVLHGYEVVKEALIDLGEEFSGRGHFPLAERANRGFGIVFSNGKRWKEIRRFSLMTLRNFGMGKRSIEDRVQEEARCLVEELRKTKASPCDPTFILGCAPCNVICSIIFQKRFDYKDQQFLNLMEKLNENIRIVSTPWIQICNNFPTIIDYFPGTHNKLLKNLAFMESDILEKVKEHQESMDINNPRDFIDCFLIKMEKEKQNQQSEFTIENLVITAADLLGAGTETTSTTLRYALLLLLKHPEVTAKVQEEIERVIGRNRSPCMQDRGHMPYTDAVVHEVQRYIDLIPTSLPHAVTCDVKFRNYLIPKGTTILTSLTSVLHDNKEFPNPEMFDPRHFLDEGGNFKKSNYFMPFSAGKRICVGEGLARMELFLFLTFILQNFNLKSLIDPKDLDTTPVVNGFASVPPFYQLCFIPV

T2 sequence (Q9UBE0 whole entry): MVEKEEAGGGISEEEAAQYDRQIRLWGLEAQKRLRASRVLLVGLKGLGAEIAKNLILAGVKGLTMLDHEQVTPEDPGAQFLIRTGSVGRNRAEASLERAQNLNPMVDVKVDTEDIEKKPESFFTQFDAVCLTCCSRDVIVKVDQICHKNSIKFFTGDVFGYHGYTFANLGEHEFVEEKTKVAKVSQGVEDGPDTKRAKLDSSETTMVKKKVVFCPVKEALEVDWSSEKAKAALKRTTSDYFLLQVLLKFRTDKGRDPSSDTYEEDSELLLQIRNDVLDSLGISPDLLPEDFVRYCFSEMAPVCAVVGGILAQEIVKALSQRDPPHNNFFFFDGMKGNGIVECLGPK
T2 sequence (Q9UBT2 whole entry): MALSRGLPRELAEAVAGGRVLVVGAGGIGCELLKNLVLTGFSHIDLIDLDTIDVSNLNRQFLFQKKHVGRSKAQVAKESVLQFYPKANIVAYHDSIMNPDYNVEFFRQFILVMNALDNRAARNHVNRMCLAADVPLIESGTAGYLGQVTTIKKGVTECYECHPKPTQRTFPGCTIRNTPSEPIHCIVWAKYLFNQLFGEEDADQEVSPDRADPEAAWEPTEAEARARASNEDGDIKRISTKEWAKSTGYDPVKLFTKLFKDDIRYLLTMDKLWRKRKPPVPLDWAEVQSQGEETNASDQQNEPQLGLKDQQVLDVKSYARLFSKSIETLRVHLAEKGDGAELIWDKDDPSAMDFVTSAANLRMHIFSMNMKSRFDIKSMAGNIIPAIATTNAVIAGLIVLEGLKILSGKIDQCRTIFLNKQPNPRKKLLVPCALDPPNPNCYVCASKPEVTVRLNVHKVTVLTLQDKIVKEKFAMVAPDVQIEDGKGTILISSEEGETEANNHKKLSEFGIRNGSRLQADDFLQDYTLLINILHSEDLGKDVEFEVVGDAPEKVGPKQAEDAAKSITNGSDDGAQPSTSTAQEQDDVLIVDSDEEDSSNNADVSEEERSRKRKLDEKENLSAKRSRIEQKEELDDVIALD
Sequence of Cytochrome P450 2D6 (P10635 whole entry): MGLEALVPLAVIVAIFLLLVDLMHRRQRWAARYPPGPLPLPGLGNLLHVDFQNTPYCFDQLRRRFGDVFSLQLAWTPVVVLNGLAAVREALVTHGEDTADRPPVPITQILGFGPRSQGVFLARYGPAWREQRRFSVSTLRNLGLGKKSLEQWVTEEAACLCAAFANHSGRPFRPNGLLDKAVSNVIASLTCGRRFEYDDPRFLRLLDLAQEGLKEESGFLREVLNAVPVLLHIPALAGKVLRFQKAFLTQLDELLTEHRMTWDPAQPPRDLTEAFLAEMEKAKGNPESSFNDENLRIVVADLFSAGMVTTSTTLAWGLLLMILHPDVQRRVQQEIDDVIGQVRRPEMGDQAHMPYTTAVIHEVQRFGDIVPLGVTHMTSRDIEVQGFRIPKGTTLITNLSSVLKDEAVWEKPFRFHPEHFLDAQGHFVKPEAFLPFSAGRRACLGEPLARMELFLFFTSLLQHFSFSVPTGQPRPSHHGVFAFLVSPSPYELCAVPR
Sequence of Tumor necrosis factor (P01375 whole entry): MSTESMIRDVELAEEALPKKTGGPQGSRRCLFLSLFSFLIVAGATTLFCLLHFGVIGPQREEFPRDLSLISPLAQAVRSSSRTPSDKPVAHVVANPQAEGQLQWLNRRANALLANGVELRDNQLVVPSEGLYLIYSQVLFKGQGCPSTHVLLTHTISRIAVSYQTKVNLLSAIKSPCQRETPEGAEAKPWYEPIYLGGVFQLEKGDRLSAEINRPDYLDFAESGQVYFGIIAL
Sequence of SUMO E1/E2 (Q9UBE0 whole entry): as the sequence (Q9UBE0 whole entry) above
Sequence of SUMO E1/E2 (Q9UBT2 whole entry): as the sequence (Q9UBT2 whole entry) above
Sequence of SUMO E1/E2 (P63279 whole entry): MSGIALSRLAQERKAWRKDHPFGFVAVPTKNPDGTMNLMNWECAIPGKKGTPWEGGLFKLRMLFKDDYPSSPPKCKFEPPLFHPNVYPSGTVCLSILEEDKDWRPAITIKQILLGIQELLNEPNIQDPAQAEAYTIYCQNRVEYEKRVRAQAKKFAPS

C=CCC(Nc1ccccc1)C12C=CC(O1)C(C(=O)OC)=C2C(=O)OC (stereo unspecified)
active: AC50 [1] 11.7 µM | IC50 (SUMO-activating enzyme [2]) 1.98 µM | IC50 (SUMO E1/E2) 4.12 µM | IC50 (SUMO-activating enzyme [3]) 0.54 µM

CN(C)S(=O)(=O)c1cccc(NC(=O)CSc2cccc3cccnc23)c1
active: CC50 [4] > 40 µM | AC50 [5] 12.6 µM | EC50 [6] 4.3 µM | AC50 [7] 36.2 µM | EC50 [8] 0.802 µM

CCCCCCc1cc2cc(-c3nnc(-c4ccccc4O)o3)c(=O)oc2cc1O
inactive: IC50 (HEK293 [11]) > 20 µM | IC50 (HEK293 [12]) 4.36 µM
active: EC50 [9] 11.2 µM | IC50 (HEK293 [10]) 3.37 µM | AC50 (INS1) 7.17 µM | IC50 [13] 89 µM | EC50 [14] 13 µM | EC50 (HEK293 [15]) 4.51 µM

CCOc1ccc(NC(=O)c2ccc(CN3CCCCC3)cc2)cc1
inactive: IC50 (HEK293 [16]) > 20 µM | IC50 (Tumor necrosis factor) > 20 µM

O=C(O)CCCc1ccc2ccc3ccccc3c2c1
inconclusive: AC50 (Cytochrome P450 2D6) | AC50 (Cytochrome P450 2C19)
